According to patent US8937068B2, “Pyridopyrazine derivatives and their use” (Zentaris GmbH, priority 2005, dated 2015):
Values belong to the molecule of their own block, whether it stands above or below them.

How the values were obtained:
[1] = molecular target: Erk2 (Homo sapiens, UniProt P28482); assay: Cell-free kinase assay (ALPHA technology), Erk2; format: biochemical; conditions: 10 μM ATP
Procedure: The inhibitory effect of the compounds according to the invention was tested on various serine/threonine, tyrosine and lipid kinases in enzymatic assays. […] The commercial kinase proteins (Proqinase, Upstate) were used as recombinant fusion proteins with GST (glutathion-S-transferase) or His-Tag. Depending on the type of substrate, the various kinase reactions were quantified by means of suitable ALPHA™ beads (Perkin-Elmer). The substance testing is described in detail hereinafter for the Erk assay. […] a) MAPK-ALPHAs (e.g. […] The kinase reaction was then stopped by adding ALPHA bead mixes (10 μg/ml, #6760603/Perkin-Elmer) pre-incubated with 1 nM GST:Grp1 fusion protein (Upstate) and 15 nM biotinylated PIP3 (#C-39B6/Echelon) in 50 mM Hepes, 50 mM NaCl, 50 mM EDTA and 0.1% BSA and left to stand overnight. The fluorescence was detected the following morning in a Fusion™^aα-system (Perkin-Elmer). […] Eight determinations were made for each control and two for the substance samples. […] The IC50 values were determined using GraphPadPrism.

[2] = molecular target: PI3Kalpha (Homo sapiens (Human), UniProt P42336); assay: Cell-free kinase assay (ALPHA technology), PI3Kalpha; format: biochemical; conditions: 100 μM ATP
Procedure: (§1) The inhibitory effect of the compounds according to the invention was tested on various serine/threonine, tyrosine and lipid kinases in enzymatic assays. Recombinant human kinases such as, for example, Erk2, PI3Kalpha, -beta, -gamma, -delta, p38alpha, p38gamma, Jnk1, Jnk2 and others were used in this case, partly as full-length kinases, partly as shortened fragments, but at least consisting of the functional kinase domains. The commercial kinase proteins (Proqinase, Upstate) were used as recombinant fusion proteins with GST (glutathion-S-transferase) or His-Tag. Depending on the type of substrate, the various kinase reactions were quantified by means of suitable ALPHA™ beads (Perkin-Elmer).
(§2) The substance testing is described in detail hereinafter for the Erk assay.
(§3) a) MAPK-ALPHAs (e.g. Erk2): the test substance, 0.625 ng Erk2 (#14-173, Upstate), 10 μM ATP and 15 nM biotinylated MBP (myelin basic protein) substrate were incubated on a 384-well Optiplate (Perkin-Elmer) in a volume of 15 μl for 1 h in 25 mM Tris, 10 mM MgCl2, 0.1% Tween-20, 100 μM NaVO4, 2 mM DTT at pH 7.5. The kinase reaction was then stopped by adding 10 μl of the ALPHA bead mixes (10 μg/ml, #6760617/Perkin-Elmer) pre-incubated with anti-phospho MBP antibody (320 pM, #05-429/Upstate) in 25 mM Tris, 200 mM NaCl, 110 nM EDTA and 0.3% BSA and left to stand overnight. b) PI3K-ALPHAs (e.g. PI3Kalpha): the test substance, 1 ng PI3Kalpha (#14-602, Upstate), 100 μM ATP and 20 μM PIP2 substrate (#P4508, Echelon) were incubated on a 384-well Optiplate (Perkin-Elmer) for 1 h in 50 mM Hepes, 50 mM NaCl, 5 mM MgCl2, 0.05% Chaps, 5 mM DTT at pH 7.4. The kinase reaction was then stopped by adding ALPHA bead mixes (10 μg/ml, #6760603/Perkin-Elmer) pre-incubated with 1 nM GST:Grp1 fusion protein (Upstate) and 15 nM biotinylated PIP3 (#C-39B6/Echelon) in 50 mM Hepes, 50 mM NaCl, 50 mM EDTA and 0.1% BSA and left to stand overnight.
(§4) The fluorescence was detected the following morning in a Fusion™^aα-system (Perkin-Elmer).
(§5) The %-inhibition values per substance concentration were calculated by means of the following formula from the raw data determined in the Fusion™ ? :
(§6) Eight determinations were made for each control and two for the substance samples. The 0% control either contains no ATP or no substrate, the 100% control (fully active kinase) contains no test substance. The IC50 values were determined using GraphPadPrism.

[3] = molecular target: p38alpha (Homo sapiens (Human), UniProt Q16539); assay: Cell-free kinase assay (ALPHA technology), p38alpha; format: biochemical; conditions: 10 μM ATP
Procedure: as §1, §2, §3, §4, §5, §6

[4] = system: Jnk1 + Jnk2; assay: Cell-free kinase assay (ALPHA technology), Jnk1 + Jnk2; format: biochemical, human; conditions: 10 μM ATP
Procedure: as §1, §2, §3, §4, §5, §6

[5] = system: MDA-MB468; assay: XTT assay, anti-proliferative effect, MDA-MB468; format: cell-based; conditions: 45 h incubation
Procedure: (§7) The principle of this test is based on the intracellular reduction of the tetrazolium dye XTT (sodium 3′-[1-(phenylaminocarbonyl)-3,4-tetrazolium]-bis(4-methoxy-6-nitro)benzene sulfonic acid, Sigma) to a formazan dye by mitochondrial dehydrogenases. The dye is only formed by metabolically active cells and its photometrically measurable intensity is a quantitative indicator for the presence of living cells. The reduction of dye formation by incubation of the cells with substances serves as a parameter for the anti-proliferative effect.
(§8) The tumour cell lines (ATCC) were injected into 96-well microtitre plates in a defined cell number (5000 cells/well for BxPC3 and Hct116; 10000 cells/well for MDA MB468) and then incubated overnight in an incubator at 37° C., 5% CO2 and 95% air humidity. The test substances were prepared as stock solutions (10 mM) in DMSO. […] The cell plates were then incubated for 45 h in an incubator at 37° C., 5% CO2 and 95% air humidity.
(§9) For the detection reaction the substrate XTT was mixed with PMS (N-Methyl dibenzopyrazine methylsulfate, Sigma) and added to the cells so that a final concentration of 325 μg XTT/ml and 2.5 μg PMS/ml was obtained. It was then incubated for 3 h at 37° C., 95% air humidity. The formazan salt formed by the cellular dehydrogenases could then be quantified by adsorption at 490 nm.
(§10) The % inhibition value was evaluated by means of the following formula from the values for the optical densities measured in each case at 490 nm:
(§11) Eight determinations were made for each control and two for the substance samples. The 0% control contains no cells, the 100% control (proliferation control) contains no test substance. The EC50 values were determined using GraphPadPrism.

[6] = system: Hct116; assay: XTT assay, anti-proliferative effect, Hct116; format: cell-based; conditions: 45 h incubation
Procedure: as §7, §8, §9, §10, §11

Sequence of p38alpha (Q16539 whole entry): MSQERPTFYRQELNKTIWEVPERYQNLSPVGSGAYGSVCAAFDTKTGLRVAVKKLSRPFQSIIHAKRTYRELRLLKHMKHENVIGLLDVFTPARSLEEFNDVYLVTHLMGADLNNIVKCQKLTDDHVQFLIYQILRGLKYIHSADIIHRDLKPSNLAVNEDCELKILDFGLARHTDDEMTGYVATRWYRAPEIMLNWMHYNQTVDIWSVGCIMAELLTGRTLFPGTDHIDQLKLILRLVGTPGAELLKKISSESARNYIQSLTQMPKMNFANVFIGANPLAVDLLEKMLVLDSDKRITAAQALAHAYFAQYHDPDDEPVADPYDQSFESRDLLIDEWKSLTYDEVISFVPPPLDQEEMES
Sequence of Erk2 (P28482 2-360 limits assumed): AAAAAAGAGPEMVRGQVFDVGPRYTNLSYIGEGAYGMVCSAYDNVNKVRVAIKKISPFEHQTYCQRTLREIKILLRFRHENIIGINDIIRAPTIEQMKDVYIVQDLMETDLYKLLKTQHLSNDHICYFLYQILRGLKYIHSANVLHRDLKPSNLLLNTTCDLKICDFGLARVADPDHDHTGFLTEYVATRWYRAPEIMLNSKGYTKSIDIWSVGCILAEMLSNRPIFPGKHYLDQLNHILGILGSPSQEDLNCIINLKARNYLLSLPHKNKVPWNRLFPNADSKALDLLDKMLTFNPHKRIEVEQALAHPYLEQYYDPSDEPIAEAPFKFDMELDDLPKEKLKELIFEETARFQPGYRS
Sequence of PI3Kalpha (P42336 whole entry, the tested form may be a part): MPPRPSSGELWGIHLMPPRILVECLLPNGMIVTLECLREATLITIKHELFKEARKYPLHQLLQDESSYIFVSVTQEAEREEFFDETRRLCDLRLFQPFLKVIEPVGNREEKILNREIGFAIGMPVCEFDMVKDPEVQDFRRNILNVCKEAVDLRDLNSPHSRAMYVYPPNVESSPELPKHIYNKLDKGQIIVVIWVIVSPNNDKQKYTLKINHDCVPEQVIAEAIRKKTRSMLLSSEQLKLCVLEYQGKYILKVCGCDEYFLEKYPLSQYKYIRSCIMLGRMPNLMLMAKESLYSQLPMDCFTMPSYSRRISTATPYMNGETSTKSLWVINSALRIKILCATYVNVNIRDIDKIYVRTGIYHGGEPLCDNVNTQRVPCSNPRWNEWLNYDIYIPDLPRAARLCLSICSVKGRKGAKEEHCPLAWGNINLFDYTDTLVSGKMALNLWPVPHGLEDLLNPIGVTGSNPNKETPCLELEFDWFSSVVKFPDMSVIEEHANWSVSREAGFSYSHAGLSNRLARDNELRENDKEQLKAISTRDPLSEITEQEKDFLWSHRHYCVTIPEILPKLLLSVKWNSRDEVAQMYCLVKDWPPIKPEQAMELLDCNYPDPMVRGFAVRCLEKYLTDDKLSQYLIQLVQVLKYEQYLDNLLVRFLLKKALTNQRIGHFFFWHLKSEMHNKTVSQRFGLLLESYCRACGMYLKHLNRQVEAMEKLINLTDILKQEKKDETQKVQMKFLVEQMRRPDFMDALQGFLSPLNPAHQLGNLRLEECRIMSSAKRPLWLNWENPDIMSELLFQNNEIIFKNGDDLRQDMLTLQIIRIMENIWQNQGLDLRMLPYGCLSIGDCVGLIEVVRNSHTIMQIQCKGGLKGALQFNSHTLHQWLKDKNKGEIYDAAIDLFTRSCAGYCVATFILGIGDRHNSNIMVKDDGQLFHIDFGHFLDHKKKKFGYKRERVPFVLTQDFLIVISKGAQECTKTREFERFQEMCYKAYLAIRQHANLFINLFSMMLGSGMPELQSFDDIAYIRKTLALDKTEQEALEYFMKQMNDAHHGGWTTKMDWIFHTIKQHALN
Sequence of PI3Kalpha (P27986 whole entry partner, the tested form may be a part): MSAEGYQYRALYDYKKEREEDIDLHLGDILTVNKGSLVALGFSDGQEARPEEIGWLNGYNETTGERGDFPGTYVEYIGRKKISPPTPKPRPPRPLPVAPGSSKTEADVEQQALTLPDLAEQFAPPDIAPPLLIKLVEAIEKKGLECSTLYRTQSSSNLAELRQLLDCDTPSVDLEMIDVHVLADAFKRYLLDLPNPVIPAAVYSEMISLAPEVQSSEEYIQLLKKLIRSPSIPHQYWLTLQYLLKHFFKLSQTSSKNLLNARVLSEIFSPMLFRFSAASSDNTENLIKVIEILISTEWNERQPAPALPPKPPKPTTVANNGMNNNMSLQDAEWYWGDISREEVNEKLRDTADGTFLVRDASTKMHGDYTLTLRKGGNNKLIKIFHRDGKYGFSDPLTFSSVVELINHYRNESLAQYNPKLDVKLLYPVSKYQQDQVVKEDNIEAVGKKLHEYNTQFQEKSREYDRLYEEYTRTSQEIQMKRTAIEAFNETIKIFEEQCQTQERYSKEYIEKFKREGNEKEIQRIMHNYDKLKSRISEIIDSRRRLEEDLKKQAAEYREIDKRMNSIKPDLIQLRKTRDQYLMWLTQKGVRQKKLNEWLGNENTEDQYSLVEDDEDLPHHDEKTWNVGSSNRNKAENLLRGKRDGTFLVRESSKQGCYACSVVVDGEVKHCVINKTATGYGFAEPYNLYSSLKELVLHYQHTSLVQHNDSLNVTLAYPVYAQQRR

SMILES: CCNC(=O)Nc1ccc2ncc(-c3cc(Cl)c(O)c(OC)c3)nc2n1 [Compound 175]
IC50 [1]: 191 nM
IC50 [2]: 458 nM
IC50 [3]: > 100 µM
IC50 [4]: 2.5 µM
EC50 [5]: > 50 µM
EC50 [6]: 4.4 µM

SMILES: CCNC(=O)Nc1ccc2ncc(-c3ccc(O)c(OC)c3)nc2n1 [Compound 193]
IC50 [1]: 212 nM
IC50 [2]: 2200 nM
IC50 [3]: > 100 µM
IC50 [4]: 1.5 µM
EC50 [5]: 4.4 µM
EC50 [6]: 2.1 µM

SMILES: CCNC(=O)Nc1ccc2nc(C)c(C)nc2n1 [Compound 37, 1-(2,3-Dimethyl-pyrido[2,3-b]pyrazin-6-yl)-3-ethyl-urea]
melting point: 246 to 248 °C

SMILES: C=CCNC(=S)Nc1ccc2ncc(-c3ccc([N+](=O)[O-])cc3)nc2n1 [Compound 24, 1-allyl-3-[3-(4-nitro-phenyl)-pyrido[2,3-b]pyrazin-6-yl]-thiourea]
melting point: 244 °C (dec.)

SMILES: COc1ccc(-c2cnc3ccc(NC(=S)Nc4ccc([N+](=O)[O-])cc4)nc3n2)cc1 [Compound 9, 1-[3-(4-methoxy-phenyl)-pyrido[2,3-b]pyrazin-6-yl]-3-(4-nitro-phenyl)-thiourea]
melting point: 250 to 251 °C (dec.)

SMILES: O=C(Nc1ccc(Cl)c(C(F)(F)F)c1)Nc1ccc2ncc(-c3ccccc3)nc2n1 [Compound 16, 1-(4-chloro-3-trifluoromethyl-phenyl)-3-(3-phenyl-pyrido[2,3-b]pyrazin-6-yl)-urea]
melting point: 250 °C

SMILES: C=CCNC(=O)Nc1ccc2ncc(-c3ccc(O)cc3)nc2n1 [Compound 25, 1-allyl-3-[3-(4-hydroxy-phenyl)-pyrido[2,3-b]pyrazin-6-yl]-urea]
IC50 [1]: 76 nM
IC50 [2]: 1500 nM
IC50 [3]: > 100 µM
IC50 [4]: > 31.6 µM
melting point: 240 °C (dec.)

SMILES: COc1cc(-c2cnc3ccc(NC(=O)NCCCCN4CCOCC4)nc3n2)ccc1O [Compound 176, 1-[3-(4-Hydroxy-3-methoxy-phenyl)-pyrido[2,3-b]pyrazin-6-yl]-3-(4-morpholin-4-yl-butyl)-urea]
EC50 ([5]; Homo sapiens, MDA-MB-468): 17 µM
EC50 ([6]; Homo sapiens, HCT-116): 11.8 µM

SMILES: CNC(=S)Nc1ccc2ncc(-c3ccccc3)nc2n1 [Compound 12, 1-methyl-3-(3-phenyl-pyrido[2,3-b]pyrazin-6-yl)-thiourea]
melting point: 253 to 254 °C

SMILES: Cc1ccc(NC(=O)Nc2ccc3ncc(-c4ccccc4)nc3n2)cc1 [Compound 15, 1-(3-phenyl-pyrido[2,3-b]pyrazin-6-yl)-3-p-tolyl-urea]
melting point: 298 to 299 °C

SMILES: C=C(C)CNC(=S)Nc1ccc2ncc(-c3ccccc3)nc2n1 [Compound 4, 1-(2-methyl-allyl)-3-(3-phenyl-pyrido[2,3-b]pyrazin-6-yl)-thiourea]
melting point: 225 to 226 °C (dec.)

SMILES: CC(C)NC(=S)Nc1ccc2ncc(-c3ccccc3)nc2n1 [Compound 19, 1-isopropyl-3-(3-phenyl-pyrido[2,3-b]pyrazin-6-yl)-thiourea]
melting point: 229 to 230 °C

SMILES: CCNC(=O)Nc1ccc2ncc(-c3ccc(OP(=O)(O)O)c(OC)c3)nc2n1 [Compound 169, Phosphoric acid-mono-{4-[6-(3-ethyl-ureido)-pyrido-[2,3-b]pyrazin-3-yl]-2-methoxy-phenyl}-ester]
IC50 [1]: 2700 nM
IC50 [2]: 3700 nM
IC50 [3]: > 100 µM
IC50 [4]: 9.5 µM
EC50 ([5]; Homo sapiens, MDA-MB-468): 5.7 µM
EC50 ([6]; Homo sapiens, HCT-116): 2.8 µM

SMILES: C/C=C/NC(=S)Nc1ccc2nc(-c3ccc(O)cc3)c(-c3ccc(O)cc3)nc2n1 [Compound 33, 1-[2,3-bis-(4-hydroxy-phenyl)-pyrido[2,3-b]pyrazin-6-yl]-3-((E)-propenyl)-thiourea]
melting point: 240 °C (dec.)

SMILES: S=C(NCc1ccco1)Nc1ccc2ncc(-c3ccccc3)nc2n1 [Compound 20, 1-furan-2-ylmethyl-3-(3-phenyl-pyrido[2,3-b]pyrazin-6-yl)-thiourea]
melting point: 250 °C (dec.)

Results, then the molecule that gave them:

melting point: 236 to 237 °C
SMILES: CCNC(=O)Nc1ccc2nc(-c3ccccn3)c(-c3ccccn3)nc2n1 [Compound 36, 1-(2,3-Di-pyridin-2-yl-pyrido[2,3-b]pyrazin-6-yl)-3-ethyl-urea]

melting point: 251 to 252 °C (dec.)
SMILES: C=C(C)CNC(=S)Nc1ccc2ncc(-c3ccc(OC)cc3)nc2n1 [Compound 3, 1-[3-(4-methoxy-phenyl)-pyrido[2,3-b]pyrazin-6-yl]-3-(2-methyl-allyl)-thiourea]

melting point: 260 to 261 °C (dec.)
SMILES: O=[N+]([O-])c1ccc(NC(=S)Nc2ccc3ncc(-c4ccc5ccccc5c4)nc3n2)cc1 [Compound 8, 1-(3-naphth-2-yl-pyrido[2,3-b]pyrazin-6-yl)-3-(4-nitro-phenyl)-thiourea]

melting point: 270 °C
SMILES: CNC(=S)Nc1ccc2ncc(-c3ccc([N+](=O)[O-])cc3)nc2n1 [Compound 22, 1-methyl-3-[3-(4-nitro-phenyl)-pyrido[2,3-b]pyrazin-6-yl]-thiourea]

EC50 ([5]; Homo sapiens, MDA-MB-468): 8.5 µM
EC50 ([6]; Homo sapiens, HCT-116): 5.5 µM
SMILES: CCNC(=O)Nc1ccc2ncc(Nc3cc(C)cc(C)c3)nc2n1 [Compound 191, 1-[3-(3,5-Dimethyl-phenylamino)-pyrido[2,3-b]pyrazin-6-yl]-3-ethyl-urea]

IC50 [2]: 900 nM
IC50 [3]: > 31.6 µM
IC50 [4]: > 31.6 µM
melting point: 239 to 240 °C (dec.)
SMILES: C=CCNC(=S)Nc1ccc2ncc(-c3ccccc3)nc2n1 [Compound 1, 1-Allyl-3-(3-phenyl-pyrido[2,3-b]pyrazin-6-yl)-thiourea]

melting point: 250 °C (dec.)
SMILES: C=CCNC(=S)Nc1cnc2nc(-c3ccc([N+](=O)[O-])cc3)cnc2c1 [Compound 137, 1-Allyl-3-[3-(4-nitro-phenyl)-pyrido[2,3-b]pyrazin-7-yl]-thiourea]

melting point: 218 to 220 °C (dec.)
SMILES: C=CCNC(=S)Nc1ccc2ncc(-c3ccc4c(c3)OCO4)nc2n1 [Compound 28, 1-allyl-3-(3-benzo[1,3]dioxol-5-yl-pyrido[2,3-b]pyrazin-6-yl)-thiourea]
